# Data as given in patent US9453226B2, “Protection of cells from Alu-RNA-induced degeneration and inhibitors for protecting cells” (UNIVERSITY OF KENTUCKY RESEARCH FOUNDATION, priority 2011, dated 2016).
# Assays:
# RPE = experiment: pAlu-induced RPE degeneration in wild-type mice, inhibitors given intravitreously; assay type: in vivo; conditions: WT mice, subretinal pAlu, inhibitor intravitreous, fundus photographs and ZO-1 flat mounts
# Method: Subretinal injection and imaging. Subretinal injections (1 μL) were performed using a Pico-Injector (PLI-100, Harvard Apparatus). Plasmids were transfected in vivo using 10% Neuroporter (Genlantis). Fundus imaging was performed on a TRC-50 IX camera (Topcon) linked to a digital imaging system (Sony). RPE flat mounts were immunolabeled using antibodies against zonula occludens-1 (Invitrogen).
# Retinal photographs of dilated mouse eyes were taken with a TRC-50 IX camera (Topcon) linked to a digital imaging system (Sony).
# Human eyes fixed in 2-4% paraformaldehyde were prepared as eyecups, cryoprotected in 30% sucrose, embedded in optimal cutting temperature compound (Tissue-Tek OCT; Sakura Finetek), and cryosectioned into 10 μm sections. Depigmentation was achieved using 0.25% potassium permanganate and 0.1% oxalic acid. Immunohistochemical staining was performed with the rabbit antibody against NLRP3 (1:100, Sigma Aldrich) or rabbit antibody against Caspase-1 (prediluted, AbCam). Isotype IgG was substituted for the primary antibody to assess the specificity of the staining. Bound antibody was detected with biotin-conjugated secondary antibodies, followed by incubation with ABC reagent and visualized by Vector Blue (Vector Laboratories). Levamisole (Vector Laboratories) was used to block endogenous alkaline phosphatase activity. Slides were washed in PBS, counterstained with neutral red (Fisher Scientific), rinsed with deionized water, air dried, and then mounted in Vectamount (Vector Laboratories). Fluorescent labeling of human tissue was performed with the rabbit antibody against PYCARD (1:50, Clone N-15, Santa Cruz Biotechnology) Immunolabeling was visualized by fluorescently conjugated anti-rabbit secondary antibody (Invitrogen). Tissue autofluorescence was quenched by incubating the sections in 0.3% Sudan black (Fisher Scientific). Sections were mounted in Vectashield with DAPI (Vector Laboratories). Mouse RPE/choroid flat mounts were fixed with 4% paraformaldehyde or 100% methanol, stained with rabbit antibodies against human zonula occludens-1 (1:100, Invitrogen) and visualized with Alexa594 (Invitrogen). All images were obtained using the Leica SP-5 or Zeiss Axio Observer Z1 microscopes.
# Subretinal injections (1 μL) in mice were performed using a Pico-Injector (PLI-100, Harvard Apparatus). In vivo transfection of plasmids coding for two different Alu sequences (pAlu) or empty control vector (pNull) (Bennett et al., 2008; Kaneko et al., 2011; Shaikh et al., 1997) was achieved using 10% Neuroporter (Genlantis). AAV1-BEST1-Cre (Alexander and Hauswirth, 2008) or AAV1-BEST1-GFP were injected at 1.0×10^11 pfu/mL and in vitro transcribed Alu RNA was injected at 0.3 mg/mL.
# siRNAs formulated in siRNA buffer (20 mM KCL, 0.2 mM MgCl2 in HEPES buffer at pH 7.5; Dharmacon) or phosphate buffered saline (PBS; Sigma-Aldrich); the TLR4 antagonist Ultra Pure Rhodobacter sphaeroides LPS (LPS-RS, InvivoGen), a peptide inhibitor of MyD88 homodimerization IMG-2005 (IMGENEX), control inhibitor (IMGENEX), recombinant IL-18 (Medical & Biological Laboratories), neutralizing rat antibodies against mouse IL-1β (IMGENEX), neutralizing rat antibodies against mouse IL-18 (Medical & Biological Laboratories), isotype control IgGs (R&D Systems or eBioscience as appropriate), Caspase-1 inhibitor Z-WEHD-FMK (R&D Systems), Caspase control inhibitor Z-FA-FMK (R&D Systems), DPI (Enzo Life Sciences), Mito-TEMPO (Enzo Life Sciences), MitoQ and dTPP (both adsorbed to cyclodextrin and provided by M.P. Murphy, MRC Mitochondrial Biology Unit), and gp91ds-tat and scrambled gp91 ds-tat (both Anaspec), were dissolved in phosphate buffered saline (PBS; Sigma-Aldrich) or dimethyl sulfoxide (DMSO; Sigma-Aldrich), and injected into the vitreous humor in a total volume of 1 μL with a 33-gauge Exmire microsyringe (Ito Corporation). […] As a control, Luc siRNA-chol (17+2 nt) was used with identical dosages. […]
# IRAK1/4 phosphorylation = IRAK1/4 phosphorylation in human RPE cells (Western blot); assay type: cell-based; conditions: human RPE cells; normalized to Vinculin
# Method: Protein abundance was assessed by Western blot analysis using antibodies against Caspase-1 (1:500; Invitrogen), pIRAK1 (1:500; Thermo Scientific), pIRAK4 (1:500, Abbomax), PYCARD (1:200, Santa Cruz Biotechnology), NLRP3 (1:500, Enzo Life Sciences) and Vinculin (1:1,000; Sigma-Aldrich). Caspase-1 activity was visualized using Caspalux1 E1D2 (Oncolmmunin) according to manufacturer's instructions.
# Tissues or cells were homogenized in lysis buffer (10 mM Tris base, pH 7.4, 150 mM NaCl, 1 mM EDTA, 1 mM EGTA, 1% Triton X-100, 0.5% NP-40, protease and phosphatase inhibitor cocktail (Roche)). Protein concentrations were determined using a Bradford assay kit (Bio-Rad) with bovine serum albumin as a standard. Proteins (40-100 μg) were run on NuPAGE Bis-Tris gels (Invitrogen) and transferred to Immun-Blot PVDF membranes (Bio-Rad). Cells were scraped in hot Laemmli buffer (62.5 mM Tris base, pH 6.8, 2% SDS, 5% 2-Mercaptoethanol, 10% Glycerol, 0.01% Bromophenol Blue). Samples were boiled and run on 4-20% NuPAGE Tris-Glycine gels (Invitrogen). The transferred membranes were blocked for 1 h at RT and incubated with antibodies against human Caspase-1 (1:500; Invitrogen), mouse Caspase 1 (1:500; MBL), NLRP3 (1:1000; Enzo Life Sciences), PYCARD (1:1000, RayBiotech), phospho-IRAK1 (S376) (1:500, Thermo Scientific), phospho-IRAK4 (T345) (1:500, AbboMax), DICER1 (1:2,000; Bethyl), MyD88 (1:1,000; Cell Signaling), and mouse IL-18 (1:200; MBL) at 4° C. overnight. Protein loading was assessed by immunoblotting using an anti-Vinculin antibody (1:1,000; Sigma-Aldrich). The secondary antibodies were used (1:5,000) for 1 h at RT. The signal was visualized by enhanced chemiluminescence (ECL plus) and captured by VisionWorksLS Image Acquisition and Analysis software (Version 6.7.2, UVP, LLC).
Substance,pAlu-induced RPE degeneration (RPE),Alu RNA-induced IRAK1/4 phosphorylation (IRAK1/4 phosphorylation),pAlu-induced RPE degeneration (RPE; listed as Caspase-1 peptide inhibitor)
DRQIKIWFQNRRMKWKKRDVLPGT [MyD88 inhibitory peptide],inhibited,reduces,
Z-WEHD-FMK,blocked,reduced,protects
